Test results as given in patent publication US20240228488A1 (TAKEDA PHARMACEUTICAL COMPANY LIMITED, priority 2021, published 2024).

biological target: human activated kallikrein enzyme (Homo sapiens, UniProt P03952); experiment: Plasma kallikrein inhibition, fluorogenic PFR-AMC substrate, 500 pM activated kallikrein format; assay type: biochemical; settings: 500 pM activated kallikrein, 300 uM PFR-AMC, 30 min preincubation, 10 min reaction; read-out: Primary Dose Response Assay: Average EC50
Procedure, shortened: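 Fluorescence (ex 380/em 460 nm) is read after 10 min of 300 uM PFR-AMC turnover by 500 pM enzyme at RT. Compounds sit with enzyme for 30 min beforehand. Buffer is Tris (pH 7.5) with EDTA, NaCl, PEG-400 and Triton X-100; EC50 values are banded.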

Chain of human activated kallikrein enzyme (P03952 391-638 limits assumed): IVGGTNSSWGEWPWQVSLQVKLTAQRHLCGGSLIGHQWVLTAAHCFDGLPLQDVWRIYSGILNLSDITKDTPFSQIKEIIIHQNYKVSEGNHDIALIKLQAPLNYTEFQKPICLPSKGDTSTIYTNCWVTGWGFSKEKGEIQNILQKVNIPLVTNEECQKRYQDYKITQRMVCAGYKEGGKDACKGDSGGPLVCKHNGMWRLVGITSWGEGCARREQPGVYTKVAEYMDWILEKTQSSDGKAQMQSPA
Chain of human activated kallikrein enzyme (P03952 20-390 partner limits assumed): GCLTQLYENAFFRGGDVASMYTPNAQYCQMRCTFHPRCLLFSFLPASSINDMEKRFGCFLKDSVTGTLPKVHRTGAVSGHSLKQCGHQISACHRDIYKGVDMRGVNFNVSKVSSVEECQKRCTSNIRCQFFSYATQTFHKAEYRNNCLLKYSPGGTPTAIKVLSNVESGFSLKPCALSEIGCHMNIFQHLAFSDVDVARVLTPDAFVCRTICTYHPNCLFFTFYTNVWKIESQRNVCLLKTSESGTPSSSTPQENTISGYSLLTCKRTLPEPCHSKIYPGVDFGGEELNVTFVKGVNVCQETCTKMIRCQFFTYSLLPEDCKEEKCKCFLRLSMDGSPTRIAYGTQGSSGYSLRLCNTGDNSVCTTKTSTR

Row | SMILES | EC50 [nM]
1 | O=C(Nc1cc(NCc2cn3cc(C4CC4)cc(OC4CNC4)c3n2)ncn1)[C@H]1C[C@@H]1c1cccc(Cl)c1 [Example 306, (1S,2S)—N-(6-(((8-(azetidin-3-yloxy)-6-cyclopropylimidazo[1,2-a]pyridin-2-yl)methyl)amino)pyrimidin-4-yl)-2-(3-chlorophenyl)cyclopropane-1-carboxamide] | < 1
2 | O=C(Nc1nccnc1OCc1cn2cc(C3CC3)ccc2n1)[C@H]1C[C@@H]1c1cccc(Cl)c1 [Example 570, (1S,2S)-2-(3-chlorophenyl)-N-(3-((6-cyclopropylimidazo[1,2-a]pyridin-2-yl)methoxy)pyrazin-2-yl)cyclopropane-1-carboxamide] | 10 to 100
3 | O=C(Nc1cc(NCc2cn3cc(C4CC4)ccc3n2)ccn1)[C@@H]1C[C@H]1c1cccc(Cl)c1 (single isomer, unassigned) [Example 116] | 100 to 1000
4 | O=C(Nc1cncc(NCc2cn3cc(C4CC4)ccc3n2)n1)[C@H]1C[C@@H]1c1cccc(Cl)c1 (racemic) [Example 345, (rac-(1S*,2S*))-2-(3-chlorophenyl)-N-(6-(((6-cyclopropylimidazo[1,2-a]pyridin-2-yl)methyl)amino)pyrazin-2-yl)cyclopropane-1-carboxamide] | 10 to 100
5 | COCc1nc(NC(=O)[C@H]2C[C@@H]2c2nccc(C)n2)cc(N[C@H](C)c2cn3cc(C4(F)CC4)cc(N4CC(=O)N(C)C4=O)c3n2)n1 [Example 439, (1S,2S)-N-(6-(((R)-1-(6-(1-fluorocyclopropyl)-8-(3-methyl-2,4-dioxoimidazolidin-1-yl)imidazo[1,2-a]pyridin-2-yl)ethyl)amino)-2-(methoxymethyl)pyrimidin-4-yl)-2-(4-methylpyrimidin-2-yl)cyclopropane-1-carboxamide] | < 1
6 | C[C@H]1[C@H](C(=O)Nc2cc(NCc3cn4cc(C5CC5)ccc4n3)ncn2)[C@H]1c1cccc(Cl)c1 (single isomer, unassigned) [Example 508, (1R*,2R*,3S*)-2-(3-chlorophenyl)-N-(6-(((6-cyclopropylimidazo[1,2-a]pyridin-2-yl)methyl)amino)pyrimidin-4-yl)-3-methylcyclopropane-1-carboxamide] | > 6000
7 | Cc1ccnc([C@H]2C[C@@H]2C(=O)Nc2cc(N[C@H](C)c3cn4cc(C5CC5)cc(N5C(=O)N(C)C(=O)C5(C)C)c4n3)nc(C)n2)n1 [Example 432, (1S,2S)-N-(6-(((R)-1-(6-cyclopropyl-8-(3,5,5-trimethyl-2,4-dioxoimidazolidin-1-yl)imidazo[1,2-a]pyridin-2-yl)ethyl)amino)-2-methylpyrimidin-4-yl)-2-(4-methylpyrimidin-2-yl)cyclopropane-1-carboxamide] | < 1
8 | Cc1ccnc([C@H]2C[C@@H]2C(=O)Nc2cc(OCc3cn4cc(C5CC5)cc(N5CC(=O)N(C)C5=O)c4n3)c(CO)nn2)n1 [Example 677, (1S,2S)—N-(5-((6-cyclopropyl-8-(3-methyl-2,4-dioxoimidazolidin-1-yl)imidazo[1,2-a]pyridin-2-yl)methoxy)-6-(hydroxymethyl)pyridazin-3-yl)-2-(4-methylpyrimidin-2-yl)cyclopropane-1-carboxamide] | < 1
9 | CN1C(=O)[C@]2(C[C@H]2C(=O)Nc2cc(NCc3cn4cc(C5CC5)ccc4n3)ncn2)c2cc(Cl)ccc21 (racemic) [Example 413, rac-(1R*,2S*)-5′-chloro-N-(6-(((6-cyclopropylimidazo[1,2-a]pyridin-2-yl)methyl)amino)pyrimidin-4-yl)-1′-methyl-2′-oxospiro[cyclopropane-1,3′-indoline]-2-carboxamide] | 100 to 1000
10 | Cc1ccnc([C@H]2C[C@@H]2C(=O)Nc2ncc(CO)c(OCc3cn4cc(C5CC5)cc(N5CC(=O)N(C)C5=O)c4n3)n2)n1 [Example 664, (1S,2S)—N-(4-((6-cyclopropyl-8-(3-methyl-2,4-dioxoimidazolidin-1-yl)imidazo[1,2-a]pyridin-2-yl)methoxy)-5-(hydroxymethyl)pyrimidin-2-yl)-2-(4-methylpyrimidin-2-yl)cyclopropane-1-carboxamide] | < 1
11 | O=C(Nc1cc(NCc2cn3cc(C4CC4)cc(N4CCCS4(=O)=O)c3n2)ccn1)[C@H]1C[C@@H]1c1cccc(Cl)c1 [Example 121] | < 1
12 | Cc1ccnc([C@H]2C[C@@H]2C(=O)Nc2cc(N[C@H](C)c3cn4cc(C(C)(F)F)cc(N5CC(=O)N(C)C5=O)c4n3)ncn2)n1 [Example 531, (1S,2S)-N-(6-(((R)-1-(6-(1,1-difluoroethyl)-8-(3-methyl-2,4-dioxoimidazolidin-1-yl)imidazo[1,2-a]pyridin-2-yl)ethyl)amino)pyrimidin-4-yl)-2-(4-methylpyrimidin-2-yl)cyclopropane-1-carboxamide] | < 1
13 | O=C(Nc1cc(NCc2cn3cc(C4CC4)ccc3n2)ccn1)[C@@H]1C[C@]12C(=O)Nc1ccc(Cl)cc12 (racemic) [Example 514, rac-(1R*,2S*)-5′-chloro-N-(4-(((6-cyclopropylimidazo[1,2-a]pyridin-2-yl)methyl)amino)pyridin-2-yl)-2′-oxospiro[cyclopropane-1,3′-indoline]-2-carboxamide] | 10 to 100
14 | O=C(Nc1cc(NCc2cn3cc(C4CC4)cc(N4CC(=O)N(CC(F)(F)F)C4=O)c3n2)ncn1)[C@H]1C[C@@H]1c1cccc(Cl)c1 [Example 398, (1S,2S)-2-(3-chlorophenyl)-N-(6-(((6-cyclopropyl-8-(2,4-dioxo-3-(2,2,2-trifluoroethyl)imidazolidin-1-yl)imidazo[1,2-a]pyridin-2-yl)methyl)amino)pyrimidin-4-yl)cyclopropane-1-carboxamide] | 1 to 10
15 | O=C(Nc1cc(NCc2cn3cc(C4CC4)ccc3n2)ncn1)[C@@H]1C[C@H]1c1cccc(Cl)c1 (single isomer, unassigned) [Example 56] | 100 to 1000
16 | Cc1ccnc([C@H]2C[C@@H]2C(=O)Nc2ccc(F)c(OCc3cn4cc(C5CC5)cc(N5CC(=O)N(C)C5=O)c4n3)c2)n1 [Example 657, (1S,2S)—N-(3-((6-cyclopropyl-8-(3-methyl-2,4-dioxoimidazolidin-1-yl)imidazo[1,2-a]pyridin-2-yl)methoxy)-4-fluorophenyl)-2-(4-methylpyrimidin-2-yl)cyclopropane-1-carboxamide] | < 1
17 | CC(NC(=O)[C@H]1C[C@@H]1c1cccc(Cl)c1)c1cn(Cc2cn3cc(C4CC4)ccc3n2)nn1 (single isomer, unassigned) [Example 590, rac-(1S*,2S*)-2-(3-chlorophenyl)-N-(1-(1-((6-cyclopropylimidazo[1,2-a]pyridin-2-yl)methyl)-1H-1,2,3-triazol-4-yl)ethyl)cyclopropane-1-carboxamide] | 10 to 100

Other lines, results leading:

Row | EC50 [nM] | SMILES
18 | < 1 | O=C(Nc1cc(NCc2cn3cc(C4CC4)ccc3n2)ccn1)[C@@H]1C[C@]12CCc1ccc(Cl)cc12 (racemic) [Example I-271, rac-(1S*,2S*)-6′-chloro-N-(4-(((6-cyclopropylimidazo[1,2-a]pyridin-2-yl)methyl)amino)pyridin-2-yl)-2′,3′-dihydrospiro[cyclopropane-1,1′-indene]-2-carboxamide]
19 | 10 to 100 | COc1ncccc1-c1cc(C2CC2)cn2cc(CNc3cc(NC(=O)[C@H]4C[C@@H]4c4cccc(Cl)c4)ncn3)nc12 [Example I-150, (1S,2S)-2-(3-chlorophenyl)-N-(6-(((6-cyclopropyl-8-(2-methoxypyridin-3-yl)imidazo[1,2-a]pyridin-2-yl)methyl)amino)pyrimidin-4-yl)cyclopropane-1-carboxamide]
20 | 1000 to 6000 | Nc1cc(Cl)cc([C@H]2C[C@@H]2C(=O)Nc2cc(NCc3cn4cc(C5CC5)ccc4n3)ncn2)c1 (single isomer, unassigned) [Example I-258, rac-(1S*,2S*)-2-(3-amino-5-chlorophenyl)-N-(6-(((6-cyclopropylimidazo[1,2-a]pyridin-2-yl)methyl)amino)pyrimidin-4-yl)cyclopropane-1-carboxamide]
21 | 1 to 10 | COC(=O)c1cc(C2CC2)cn2cc(CNc3cc(NC(=O)[C@H]4C[C@@H]4c4cccc(Cl)c4)ncn3)nc12 [Example I-146, methyl 2-(((6-((1S,2S)-2-(3-chlorophenyl)cyclopropane-1-carboxamido)pyrimidin-4-yl)amino)methyl)-6-cyclopropylimidazo[1,2-a]pyridine-8-carboxylate]
22 | 100 to 1000 | O=C(Nc1cc(NCc2cn3cc(C4CC4)ccc3n2)ccn1)[C@H]1C[C@@H]1c1cc(Cl)ncn1 (racemic) [Example I-210, rac-(1S*,2S*)-2-(6-chloropyrimidin-4-yl)-N-(4-(((6-cyclopropylimidazo[1,2-a]pyridin-2-yl)methyl)amino)pyridin-2-yl)cyclopropane-1-carboxamide]
23 | 100 to 1000 | CC(C)(C)OC(=O)Nc1cc(C2CC2)cn2cc(CNc3cc(NC(=O)[C@H]4C[C@@H]4c4cccc(Cl)c4)ncn3)nc12 [Example I-156, tert-butyl (2-(((6-((15,2S)-2-(3-chlorophenyl)cyclopropane-1-carboxamido)pyrimidin-4-yl)amino)methyl)-6-cyclopropylimidazo[1,2-a]pyridin-8-yl)carbamate]
24 | 1 to 10 | N#Cc1cc(Cl)sc1[C@H]1C[C@@H]1C(=O)Nc1cc(NCc2cn3cc(C4CC4)ccc3n2)ccn1 (racemic) [Example I-212, rac-(1S*,2S*)-2-(5-chloro-3-cyanothiophen-2-yl)-N-(4-(((6-cyclopropylimidazo[1,2-a]pyridin-2-yl)methyl)amino)pyridin-2-yl)cyclopropane-1-carboxamide]
25 | 10 to 100 | COc1ccc(C#N)c([C@H]2C[C@@H]2C(=O)Nc2cc(NCc3cn4cc(C5CC5)ccc4n3)ccn2)c1 (racemic) [Example I-206, rac-(1S*,2S*)-2-(2-cyano-5-methoxyphenyl)-N-(4-(((6-cyclopropylimidazo[1,2-a]pyridin-2-yl)methyl)amino)pyridin-2-yl)cyclopropane-1-carboxamide]
